We go through five compounds from article PMC10535741, “Styrylpyridinium Derivatives for Fluorescent Cell Imaging” (Pharmaceuticals, 2023).

Read-outs that look alike come from different tables or passages of the source.

For series [1], the system named is BHK-21 (Syrian hamster kidney). Nature of the series: MTT cytotoxicity assay, BHK-21. Type of series: cell-based. An excerpt:
(§1) For selected compounds, 6a–6f, we performed a determination of the cytotoxicity in a wider variety of cancer and non-cancerous cell lines (see Table S2, Supplementary Materials) in order to learn the characteristic features of selectivity or the similarity of biological properties.
(§2) The HT-1080 (human connective tissue fibrosarcoma, ATCC® CCL-121™), MH-22A (mouse hepatocarcinoma, ECACC Cat. No. 96121721), A-549 (human lung carcinoma, ATCC® CCL-185™), NIH3T3 (Swiss Albino mouse embryo fibroblast, ECACC Cat. No. 93061524), Hek293 (human embryonic kidney, ATCC® CRL-1573™), BHK-21 (Syrian hamster kidney, ATCC® CCL-10™), A-431 (human epidermoid carcinoma, ATCC® CRL-1555™), Saos-2 (human osteosarcoma, ATCC® HTB-85™), HeLa (human epitheloid cervix carcinoma, ATCC® CCL-2™), U937 (human myeloid leukaemia, ATCC® CRL-1593.2™), C6 (rat glioma, ATCC® CCL-107™), and B16-F10 (murine melanoma, ATCC® CRL-6475™) cell lines were obtained from the American Type Culture Collection (ATCC) and European Collection of Authenticated Cell Cultures (ECACC).
(§3) HT-1080, MH-22A, A-549, NIH3T3, BHK-21, A-431, HeLa, and B16-F10 cells were cultured in Dulbecco’s Modified Eagle’s Medium (DMEM) with 2 mM glutamine and 10% foetal bovine serum (FBS). Hek293 cells were cultured in Eagle’s Minimum Essential Medium with 10% foetal bovine serum. U937 cells were cultured in RPMI-1640 Medium with 2 mM glutamine and 10% foetal bovine serum. C6 cells were cultured in Ham’s F12 Medium with 2 mM glutamine and 10% foetal bovine serum. Saos-2 cells were cultured in McCoy’s 5a Medium with 2 mM glutamine and 10% foetal bovine serum. The cells were incubated at 37 °C with 5% CO2, 95% air, and complete humidity. Once ~90% confluence was reached, they were detached using 0.05% trypsin/EDTA and counted. The cells were plated at optimally determined densities for the logarithmic phase of growth. These cells were then suspended at a concentration of 4000 cells/well for HT-1080, MH-22A, A-549, NIH3T3, BHK-21, A-431, HeLa, B16-F10, Hek293, and Saos-2 cells and a concentration of 9000 cells/well for U937, C6, Hek293, and GM08402 cells and added onto a 96-well plate. For background absorption, some wells remained cell free, i.e., as a blank control. Cells were incubated for 72 h at 37 °C and 5% CO2 where they were exposed to a media containing serial dilutions of the investigated compounds (n = 3). Cell viability was measured using the 3-(4,5-dimethylthiazol-2-yl)-2,5-diphenyl-tetrazolium bromide (MTT) assay. In brief, after incubating with compounds, the culture medium was removed and fresh medium with 0.2 mg/mL MTT was added to each well of the plate. After incubation (3 h, 37 °C, 5% CO2), the medium with MTT solution was removed and replaced with 200 µL DMSO and 25 µL Sorenson’s glycine buffer (glycine 0.1 M, NaCl 0.1 M, pH: 10.5 with 0.1 M NaOH). The plate was shaken for 15 min at room temperature and the optical density (OD) of the wells was determined using a multichannel spectrophotometer (Thermo Scientific Multiskan EX) at 540 nm. The quantity of the control cells was taken in calculations as 100%. The IC50 value was calculated using the program Graph Pad Prism® 3.0.
(§4) The HT-1080 (human connective tissue fibrosarcoma, ATCC® CCL-121™), MH-22A (mouse hepatocarcinoma, ECACC Cat.No. 96121721), A-549 (human lung carcinoma, ATCC® CCL-185™), NIH 3T3 (mouse Swiss Albino embryo fibroblast, ECACC Cat.No. 93061524), Hek293 (human embryonic kidney, ATCC® CRL-1573™), BHK-21 (hamster Syrian kidney, ATCC® CCL-10™), A-431 (human epidermoid carcinoma, ATCC® CRL-1555™), Saos-2 (human oste osarcoma, ATCC® HTB-85™) HeLa (human epitheloid cervix carcinoma, ATCC® CCL-2™), U937 (human myeloid leukaemia, ATCC® CRL-1593.2™), C6 (rat glioma, ATCC® CCL-107™), B16-F10 (murine melanoma, ATCC® CRL-6475™) cell lines were obtained from American Type Culture Collection (ATCC) and European Collection of Authenticated Cell Cultures […]
(§5) Table S2. […]
For orientation: Formazan colour is commonly taken as a measure of viable cells.

For series [2], the system named is NIH3T3 (Swiss Albino mouse embryo fibroblast). Description: in vitro. Type of series: cell-based.
Source text: as §1, §2, §3, §4, §5

A short description of another series: in vitro. Type of series: cell-based, rat. The following applies: rat.
Source text: as §1, §2
as §3, with “3.0. […]” for “3.0.”

Series [3] deals with B16-F10 (murine melanoma). Nature of the series: in vitro. Type of series: cell-based.
Source text: as §1, §2
as §3, with “3.0. […]” for “3.0.”

Where [4] appears, read: cancer cell line, MTT, 72 h, read-out: Cytotoxicity IC50 C6.

As a reminder, the IC50 is the concentration at which inhibition is half-maximal. Regarding `CCCCCCCCCCCC[n+]1ccc(C=Cc2cc(OC)c(OC)c(OC)c2)cc1.[Br-]` [Compound 6a, 4-(3,4,5-trimethoxystyryl)-N-dodecylpyridinium bromide], the “times lower cytotoxicity of 6a compared with 6d, BHK-21” value in series [1] (Syrian hamster, 72 h) turned out to be 12.5 times. The “times lower cytotoxicity of 6a compared with 6d, NIH3T3” value in series [2] (mouse, 72 h) is reported as 21.9 times. In addition, in the series “in vitro” (setting [4]), the IC50 at 72 h was found to be 0.86 µg/mL.
On to `CCCCCCCCCCCCCCCC[n+]1ccc(C=Cc2cc(OC)c(OC)c(OC)c2)cc1.[Br-]` [Compound 6b], for which the “Cytotoxicity IC50 BHK-21” value in series [1] was determined as 1.11 µg/mL. The “Cytotoxicity IC50 NIH3T3” value in series [2] is 1.02 µg/mL. Moreover, the “Cytotoxicity IC50 B16-F10” value in series [3] was 0.63 µg/mL.
In the series “in vitro”, `CCCCCCCCCCCCCCCC[n+]1ccc(C=CC=Cc2ccc(OC)cc2)cc1.[Br-]` [Compound 6c, 1-hexadecyl-4-(4-(4-methoxyphenyl)buta-1,3-dien-1-yl)pyridin-1-ium bromide] showed an IC50 at 72 h of 0.6 µg/mL.
As for `CCCCCCCCCCCC[n+]1ccc(C=Cc2cc3c4c(c2)CCCN4CCC3)cc1.[Br-]` [Compound 6d, 1-dodecyl-4-(2-(2,3,6,7-tetrahydro-1H,5H-pyrido[3,2,1-ij]quinolin-9-yl)vinyl)pyridin-1-ium bromide], in the series “in vitro” (setting [4]), the half-maximal inhibitory concentration (IC50) at 72 h was 0.129 µg/mL.
For `CCCCCCCCCCCCCCCC[n+]1ccc(C=CC=Cc2cc3c4c(c2)CCCN4CCC3)cc1.[Br-]` [Compound 6e, 1-hexadecyl-4-(4-(2,3,6,7-tetrahydro-1H,5H-pyrido[3,2,1-ij]quinolin-9-yl)buta-1,3-dien-1-yl)pyridin-1-ium bromide], in the series “in vitro” (setting [4]), the IC50 at 72 h stood at 3.4 µg/mL.
